Reference: ChEMBL document CHEMBL1151645, “Constituents of Solanum dasyphyllum Fruit” (J Nat Prod, 1985)
The source made the active and inactive calls. The rule behind the calls is not given here.

Organism: Mus musculus
Assay: Anticonvulsant activity in mouse
Format: functional, organism-based

| Structure (SMILES) | Activity |
| --- | --- |
| C[C@@H]1CC[C@@]2(NC1)O[C@H]1C[C@H]3[C@@H]4CC=C5C[C@@H](O[C@@H]6O[C@H](CO)[C@@H](O[C@@H]7O[C@@H](C)[C@H](O)[C@@H](O)[C@H]7O)[C@H](O)[C@H]6O[C@@H]6O[C@@H](C)[C@H](O)[C@@H](O)[C@H]6O)CC[C@]5(C)[C@H]4CC[C@]3(C)[C@H]1[C@@H]2C | inactive |
| C[C@@H]1CC[C@@]2(NC1)O[C@H]1C[C@H]3[C@@H]4CC=C5C[C@@H](O[C@@H]6O[C@H](CO)[C@H](O)[C@H](O[C@@H]7O[C@H](CO)[C@@H](O)[C@H](O)[C@H]7O)[C@H]6O[C@@H]6O[C@@H](C)[C@H](O)[C@@H](O)[C@H]6O)CC[C@]5(C)[C@H]4CC[C@]3(C)[C@H]1[C@@H]2C | inactive |
